Measurements taken from PubChem BioAssay (NCI).
Where “and” joins values, the source holds several entries; their conditions need not be identical. Equal entries are not always repeated.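 Test compounds were applied to cells in 96-well plates for 48 hours at 5 doses. Abbreviation: GI50, concentration required for 50% inhibition of growth. TGI: concentration producing complete growth inhibition.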

How the values were obtained:
Assay in all cases: NCI-60 cell line screen, 48 h
[1] = system: CCRF-CEM leukemia
[2] = system: NCI-H23 lung
[3] = system: 786-0 renal
[4] = system: SK-MEL-28 melanoma
[5] = system: DU-145 prostate
[6] = system: SK-MEL-5 melanoma
[7] = system: NCI/ADR-RES ovarian
[8] = system: HOP-62 NSCLC
[9] = system: SF-539 CNS
[10] = system: RXF 393 renal

SMILES	GI50 [1] [µM]	TGI [1]	GI50 [2] [µM]	TGI [2]	GI50 [3] [µM]	TGI [3]	GI50 [4] [µM]	TGI [4]	GI50 [5] [µM]	TGI [5] [µM]	GI50 [6] [µM]	TGI [6]	TGI [7] [µM]	TGI [8]	TGI [9]	GI50 [7] [µM]	GI50 [8] [µM]	GI50 [9] [µM]	TGI [10] [µM]	GI50 [10] [µM]
Nc1nc(Nc2ccc3c(c2)CC[C@@H](N2CCCC2)CC3)nn1-c1cc2c(nn1)-c1ccccc1CCC2	0.478	2.53 µM	1.72	3.56 µM	1.55	3.28 µM	1.77	3.27 µM	1.35	3	1.72	3.11 µM								
FC(F)(F)c1cccc(COCCN2CCN(Cc3cccc(C(F)(F)F)c3)CC2)c1		46.6 µM		41.1 µM		29.5 µM		34.6 µM		32.4		29.4 µM	39.1	42.1 µM	39 µM					
COC(=O)NC/C=C\c1nc(CC/C=C\C(=O)OC2CC3CC(=O)O[C@H](/C=C/CC(C)C)C[C@H]4CCC(C)C(C[C@H](OC)CC(C2)O3)O4)co1 (some centres not stated)					< 0.01	> 100 µM	12.1	> 100 µM	1.54	> 100	< 0.01	19.3 µM	> 100	62.7 µM	0.114 µM	59	< 0.01	< 0.01		
Cc1nc2c(=O)[nH]c(=O)n(C)c2[nH]c1=O				> 100 µM		> 100 µM		> 100 µM				> 100 µM		> 100 µM					> 100	
NCCCN(CCCN)CCCNCc1c2ccccc2c(CNCCCN(CCCN)CCCN)c2ccccc12		> 100 µM		85.6 µM		23.4 µM		21.9 µM				17.9 µM		32.9 µM	30.2 µM				45.2	
O=C(CNC(=O)OCc1ccccc1)Oc1ccccc1		> 100 µM		> 100 µM		> 100 µM		> 100 µM				> 100 µM		> 100 µM	> 100 µM				> 100	
CC1Cc2c(N)nc(NN)nc2NC1=O (configuration not stated)		> 100 µM		> 100 µM		> 100 µM		> 100 µM				> 100 µM		> 100 µM	> 100 µM				> 100	
Cc1cccc(C)c1NC(=O)/C(Cl)=C(/Cl)C(=O)O		14.1 µM		38.6 µM		31.3 µM		35.1 µM		64.8		34.5 µM		> 81.7 µM	53.9 µM				33.9	
CC1(CO)OC1COCc1ccccc1 (configuration not stated)		> 100 µM		> 100 µM		> 100 µM								> 100 µM	> 100 µM				> 100	
COc1ccc2c([nH]c3cc(O)c(C)cc32)c1C=O		> 25 µM				> 25 µM		> 25 µM				> 25 µM		> 25 µM	> 25 µM				> 25	
C[C@@H]1O[C@@H](O[C@@H]2[C@@H](O)[C@H](OCCc3ccc(O)c(O)c3)O[C@H](COC(=O)/C=C/c3ccc(O)c(O)c3)[C@H]2O)[C@H](O)[C@H](O)[C@H]1O					58.4	> 100 µM	> 100	> 100 µM	32.6	> 100	> 100	> 100 µM		> 100 µM	> 100 µM		> 100	> 100		
CC(C)=CC(=O)Oc1ccc([N+](=O)[O-])cc1		> 100 µM		> 100 µM		> 100 µM						> 100 µM		> 100 µM	> 100 µM				> 100	
O=C1CCCCCCCCCCC(=O)C2CCOCCOCCOCCC1Cc1cccc(n1)C2		> 100 µM		> 100 µM		> 100 µM		> 100 µM				> 100 µM		> 100 µM	> 100 µM				> 100	
CC(=O)NC1=C(Nc2ccc(C)cc2)C(=O)c2ccccc2C1=O		58.4 µM		19.6 µM		39.3 µM		39.1 µM				20.4 µM		37.6 µM	33 µM				> 75	
CC(=O)OCC1OC(OC2CC3C(C)(C)C(OC(C)=O)CC[C@]3(C)C3CCC45CC4(CC[C@H]5C(C)CC(O)[C@@H](O)C(C)(C)O)[C@]23C)C(O)C(O)C1O (some centres not stated)	4.07	14.8 µM and 15.4 µM	13.5	14.9 µM and 26.3 µM		14.2 µM and 21.9 µM	5.21	13.7 µM and 17.8 µM				13.2 µM and 19.7 µM		11.8 µM and 25.9 µM	13.5 µM and 18.9 µM		12.1		13.9	
CCOc1cc2c(cnc3c4cc(OC)c(OC)cc4ccc23)cc1OC		> 100 µM		> 100 µM		> 100 µM		> 100 µM				> 100 µM		> 100 µM	> 100 µM					
COc1ccc(C(=O)C(c2ccc(OC)cc2)C2(O)C(=O)Nc3c(C)cc(Cl)cc32)cc1 (configuration not stated)		47.7 µM		> 100 µM		> 100 µM		> 100 µM						> 100 µM	> 100 µM				> 100	
c1nc2cscc2c2cscc12		> 100 µM		> 100 µM		> 100 µM		> 100 µM						> 100 µM	> 100 µM				> 100	
COc1ccc(/C=C2\CN(C(=O)C(Cl)Cl)C/C(=C\c3ccc(OC)c(OC)c3)C2=O)cc1OC	0.0341	> 100 µM	0.41	1.79 µM	0.326	1.19 µM					0.199	0.54 µM	> 67.5			0.0864	0.883		0.492	0.209
Clc1ccc(-n2nnc(C3=NCCCN3)c2-c2ccccc2)cc1		> 100 µM		> 100 µM		> 100 µM		> 100 µM				> 100 µM		> 100 µM	> 100 µM				> 100	
COC(=O)/C=C(C)/C=C/c1cc(C(C)=O)c(C)o1		> 100 µM		> 100 µM		> 100 µM								> 100 µM	> 100 µM					
CC(=O)[CH-]C(=O)c1ccccc1.CC(=O)[CH-]C(=O)c1ccccc1.CC(=O)[CH-]C(=O)c1ccccc1.[Tl+3]	6.81	30.9 µM	45.4	> 100 µM	49.2	> 100 µM	74.3	> 100 µM			24.4	> 66.8 µM		99.9 µM	> 100 µM		33.5	36.9	> 100	56.2
